Like-named read-outs stand apart in the source and are kept apart here.
Legend:
[1] = in air, 25° C., 60% relative humidity
Experimental: The content of 5-methyltetrahydrofolic acid salt which is quoted in the examples was s determined by HPLC in each case and is given as % area. The water content was determined by a Karl Fischer method.
In order to determine the stabilities of the crystalline salts of 5-methyltetrahydrofolic acid, the substances were stored, together with comparison specimens, in air at 25° C. and at 60% relative humidity. The content of 5-methyltetrahydrofolic acid salt remaining was measured at periodic intervals and is given by comparison with the initial value.

Compound	content of 5-methyltetrahydrofolic acid salt remaining, compared with the initial value ([1]; storage 0 months)	content of 5-methyltetrahydrofolic acid salt remaining, compared with the initial value ([1]; storage 12 months)	content of 5-methyltetrahydrofolic acid salt remaining, compared with the initial value ([1]; storage 3 months)	content of 5-methyltetrahydrofolic acid salt remaining, compared with the initial value ([1]; storage 6 months)	content of 5-methyltetrahydrofolic acid salt remaining, compared with the initial value ([1]; storage 18 months)	content of 5-methyltetrahydrofolic acid salt remaining, compared with the initial value ([1]; storage 88 months)	Solubility at 20° C. in 0.9% NaCl	Solubility at 20° C. in water
CN1c2c([nH]c(N)nc2=O)NC[C@@H]1CNc1ccc(C(=O)N[C@@H](CCC(=O)[O-])C(=O)[O-])cc1.[Ca+2] [Amorphous calcium salt of 5-methyl-(6S)-tetrahydrofolic acid] [reference compound]	100%	84.2%	–	–	–	–	–	–
CN1c2c([nH]c(N)nc2=O)NC[C@@H]1CNc1ccc(C(=O)N[C@@H](CCC(=O)[O-])C(=O)[O-])cc1.[Ca+2] [Crystalline calcium salt of 5-methyl-(6S)-tetrahydrofolic ac] [calcium salt of 5-methyl-(6S)-tetrahydrofolic acid]	100%	99.1%	98.6%	98.7%	99.0%	97.8%	–	–
CN1c2c([nH]c(N)nc2=O)NC[C@@H]1CNc1ccc(C(=O)N[C@@H](CCC(=O)[O-])C(=O)[O-])cc1.[Ca+2] [Type I, calcium salt of 5-methyl-(6S)-tetrahydrofolic acid]	–	–	–	–	–	–	1.6%	1.1%
CN1c2c([nH]c(N)nc2=O)NC[C@@H]1CNc1ccc(C(=O)N[C@@H](CCC(=O)[O-])C(=O)[O-])cc1.[Ca+2] [Type II, calcium salt of 5-methyl-(6S)-tetrahydrofolic acid]	–	–	–	–	–	–	5.8%	3.8%
CN1c2c([nH]c(N)nc2=O)NC[C@@H]1CNc1ccc(C(=O)N[C@@H](CCC(=O)[O-])C(=O)[O-])cc1.[Ca+2] [Type III, calcium salt of 5-methyl-(6S)-tetrahydrofolic acid]	–	–	–	–	–	–	1.5%	1.0%

Reference: patent US6441168B1, “Stable crystalline salts of 5-methyltetrahydrofolic acid” (Eprova AG, priority 1999, dated 2002)
